Reference: patent publication US12201649B2, “Pharmaceutical composition comprising oxidizable biphenol and manganese porphyrin, and method of using the same” (Villanova University, priority 2021, dated 2025)
Read-outs that look alike come from different tables or passages of the source.

Columns and labels:
[1] = tested on: Jurkat cells; assay: apoptosis (Annexin-PE) and necrosis (RedDot 2) by flow cytometry, 4 hours; assay type: cell-based, human; settings: for effect on Jurkat cells (alive, apoptotic, necrotic): 4 hours
Procedure: Referring to FIGS. 4, 5, 6, 8, 12 and 15, cells were treated with the indicated compounds or vehicle for 4 hours in RPMI medium with 10% fetal bovine serum (FBS). RPMI medium, also known as RPMI 1640, is a growth medium used in cell culture. In these and other figures, “vehicle” represents when a treatment compound is omitted and replaced with the vehicle that the compound is dissolved in. Thus, when a MnP is omitted, water is added in its place. When an oxidizable phenol is omitted, DMSO is added for a resulting final concentration in the cell media of 0.05% DMSO. Apoptosis was measured using Annexin-PE, and necrosis was measured with RedDot 2. Fluorescence was read on an Accuri C6 flow cytometer with excitation from a 488 nm laser, and FL2 and FL4 filters were used for Annexin-PE and RedDot2, respectively. 10,000 events were acquired. Flow cytometry data was analyzed using Flowlogic software from Inivai Technologies of Australia. […] Percentage of alive, apoptotic, or necrotic cells was determined and graphed as the average±the standard deviation.
The combination of tBHQ and MnTMPyP is toxic to Jurkat cells, a CD4+ T-cell leukemic cell line. […] Cells that were alive, apoptotic or necrotic were determined using flow cytometry. Two specimens (biological duplicates) were measured for each sample.
Cells that were alive, apoptotic or necrotic were determined using flow cytometry, with n=2 (biological duplicates).
Referring to FIG. 12, unlike tBHQ, dtBHQ has no toxicity to Jurkat cells in combination with MnTMPyP. […] Cells that were alive, apoptotic or necrotic were determined using flow cytometry, with n=2 (biological duplicates).
Referring to FIG. 15, Jurkat cell death upon exposure to MNTE-2-PyP and MnTNBuOE-2-PyP (labelled as Mn2E and Mn2BuOE, respectively, in FIG. 15) are compared with that of exposure to Mn4M. […] Cells that were alive, apoptotic or necrotic were determined using flow cytometry, with n=2 (technical duplicates).
Jurkat cells were treated with 5 mM ascorbic acid or 5 μM tBHQ with or without 12 μM MnTMPyP for 4 h. Apoptosis was measured using Annexin-PE, necrosis with RedDot 2. […]

[2] = tested on: MDA-MB-231 breast cancer cells; settings: 24 hours; for efficacy at killing breast cancer cells compared with MnTM4PyP: when combined with tBHQ
[3] = tested on: NALM6 cells; assay: apoptosis (Annexin-PE) and necrosis (RedDot 2) by flow cytometry, 4 hours; assay type: cell-based; settings: tBHQ or 12 μM MnTMPyP alone
[4] = tested on: Jurkat cells; assay: cells; settings: Homo sapiens, 24 h
Procedure: Referring to FIG. 16, Jurkat cells were treated with the indicated compounds for 24 hours in RPMI with 2% FBS. Live cells were measured using the CellTiter-Fluor dye, which enters living cells and is cleaved by intracellular proteases to release the fluorescent coumarin molecule. Fluorescence was measured on a ClarioStar Plus plate reader in a 96-well plate format with excitation at 390 nm and emission capture at 505 nm. […] Data are graphed as the average±the standard error, along with the fit.
The relative number of viable cells in a sample was determined using CellTiter-Fluor dye with relative fluorescence units (RFU). […] The LC50 value for a compound is the concentration required to kill half of the cells tested after a specified test duration such as 24 hours.

[5] = tested on: MDA-MB-231 breast cancer cells; assay: cells; settings: Homo sapiens, MDA-MB-231, 24 h
[6] = tested on: PC3 prostate cancer cells; assay: cells; settings: 24 h
[7] = read-out: LC50 for tBHQ in the presence of Mn2BuOE

`CCCCOCC[n+]1ccccc1-c1c2nc(c(-c3cccc[n+]3CCOCCCC)c3ccc([nH]3)c(-c3cccc[n+]3CCOCCCC)c3nc(c(-c4cccc[n+]4CCOCCCC)c4ccc1[nH]4)C=C3)C=C2.[Mn+3]` [Mn2BuOE] was tested, and the “effectiveness at 1.2 μM versus 12 μM” value ([1]; in combination with 5 μM tBHQ, four hours) was “almost as effective at 1.2 μM as it was at 12 μM”, the “efficacy at killing breast cancer cells compared with MnTM4PyP” value [2] was “higher efficacy” and the “concentration at which Mn2BuOE is active” value ([2]; with 20 μM tBHQ) was “less than 1 μM”. The “toxicity of Mn2BuOE alone” value ([2]; without tBHQ, tested concentrations) was “not toxic at tested concentrations”.
In the case of `CC[n+]1ccccc1-c1c2nc(c(-c3cccc[n+]3CC)c3ccc([n-]3)c(-c3cccc[n+]3CC)c3nc(c(-c4cccc[n+]4CC)c4ccc1[n-]4)C=C3)C=C2.[Mn+3]` [Mn2TE2], the “efficacy at killing breast cancer cells compared with MnTM4PyP” value [2] is reported as “higher efficacy”.
For `C[n+]1ccc(-c2c3nc(c(-c4cc[n+](C)cc4)c4ccc([nH]4)c(-c4cc[n+](C)cc4)c4nc(c(-c5cc[n+](C)cc5)c5ccc2[nH]5)C=C4)C=C3)cc1.[Mn+3]` [MnTMPyP, Mn(III)tetrakis(1-methyl-4-pyridyl)porphyrin], the “effect on Jurkat cells (alive, apoptotic, necrotic)” value ([1]; 12 μM MnTMPyP alone) was “largely unaffected” and the “toxicity to NALM6 cells, compound individually” value [3] was “low toxicity”.
In the case of `CC(C)(C)c1cc(O)ccc1O` [tBHQ, tert-butylhydroquinone], the “effect on Jurkat cells (alive, apoptotic, necrotic)” value ([1]; 5 μM to 20 μM tBHQ alone) is reported as “largely unaffected”, the “toxicity to NALM6 cells, compound individually” value [3] is reported as “low toxicity” and the “toxicity of tBHQ alone” value ([2]; at 100 μM tBHQ) is reported as “no toxicity observed”. The CC50 ([4]; read-out: LC50 for tBHQ alone) was 80 ± 30 µM, the CC50 [4, 7] was 1.29 ± 0.04 µM and the CC50 ([5]; read-out: LC50 for tBHQ alone) was over 100 µM. The CC50 ([5]; read-out: LC50 for tBHQ in the presence of MnTMPyP) was 20 µM, the CC50 ([6]; read-out: LC50 for tBHQ alone) was over 100 µM and the CC50 [6, 7] was 16 ± 7 µM.
